Read-outs that look alike come from different tables or passages of the source. Positions of bridges follow the written chain, without caps; N, C: chain ends. Residues, ends and D or L forms follow the SMILES beside them. Chains are numbered I, II in the order given. No end group written: not given here.
Experiments:
human IL-15Rα = human IL-15Rα (Homo sapiens, UniProt Q13261); experiment: Competition ELISA, displacement of binding of IL-15 to IL-15Rα
Experimental: Peptide binding to the IL15-Rα was characterized by ELISA. Briefly, 96-well plates were coated with purified IL-15 in phosphate buffered saline (PBS) and blocked with bovine albumin at 1% in PBS. Dilutions of each peptide were added to the wells and plates were incubated for 1 h at 37° C. The plates were washed with PBS-Tween 20 and incubated with an IL-15Rα-Fc for 1 h at 37° C. Plates were washed again with PBS-Tween 20 and further incubated an anti Fc-human IgG-peroxidase conjugate for 1 h at 37° C. After washing, the antigen-antibody reaction was run by adding the substrate and 3,3′,5,5′-Tetramethylbenzidine (TMB), and O.D. was read at 450 nm.

[1] = tested on: skin graft from a psoriasis patient; experiment: Xenotransplant SCID mice model of human psoriasis; assay type: in vivo; conditions: 10 mg/kg, alternate days for two weeks; for grade of parakeratosis in the psoriatic lesion / keratinocytes' cycles / number of inflammatory cells / thickness of the epidermis: H & E; for severity of the disease: biopsy one week after last injection
Experimental: Two to three months-old SCID mice were transplanted with a skin graft of 1.5 cm×1.5 cm from a psoriasis patient. Three weeks after, mice were randomized and distributed in three groups: placebo, mice treated with peptide SEQ ID No. 12 at 10 mg/kg of body weight and cyclosporin A at 10 mg/kg in alternate days for two weeks. One week after the last injection, mice were sacrificed and a 4 mm biopsy was taken from each xenotransplant. Biopsies were fixed in formalin for paraffin embedding, and were stained with hematoxilin and eosin dyes (H & E).

CTLL-2 cell line = conditions: for IC50: 72 h; for activity relative to the original peptide of WO2006/029578 (fold): IL-15-dependent proliferation of CTLL-2; for inhibitory effect of the peptide (in words): from the IC50 values of Table 1
Experimental: To evaluate the neutralizing capacity of the peptides of the present invention, serial dilutions of these peptides were carried out in 96-well plates (Costar, USA) in a 25 μL volume of RPMI medium (Gibco) supplemented at 10% with calf fetal serum (Gibco). […]
Incubation was carried out for 72 h at 37° C. and 5% CO2. […] MTT is reduced to red formazan by the mitochondrial dehydrogenase of live cells.

[2] = tested on: synovial fluid cells of RA patients; experiment: IL-15-mediated TNFα production in synovial fluid cells of RA patients (ELISA); assay type: cell-based, human; conditions: peptide 50 μg/mL plus IL-15 60 ng/mL, 48 h; heading says peptide as a dimer; FIG. 6
Experimental: After obtaining a written informed consent, synovial fluid from RA patients was extracted and incubated with hyaluronidase at 10 μg per mL of fluid for 45 min at 37° C. Synovial fluid cells were obtained after centrifugation at 1200 rpm for 10 min.
Cells were incubated in 96-well plated at 2×10^5 cells per well with 50 μg/mL of peptide and 60 ng/mL of IL-15 and also a combination of peptide plus IL-15. After incubation for 48 h, supernatants were collected and stored at −70° C. until evaluation. The amount of TNFα was quantified by EL ISA (R&D DTA50).

[3] = tested on: prostate cancer cell line PC-3; experiment: IL-15Rα-induced IL-6 and IL-8 mRNA expression in PC-3 cells (real time RT-PCR); assay type: cell-based; conditions: peptide 100 μg/mL, IL15-Rα 1 ng/mL
Experimental: The experiment was carried out in 24-well plates by incubating 1.5×10^6 cells with peptides SEQ ID No. 1 and SEQ ID No. 12 at 100 μg/mL and IL15-Rα (1 ng/mL), and also combinations of IL15-Rα and peptides SEQ ID No. 1 and SEQ ID No. 12.
The RNA was isolated by the TriReagent method (Sigma) and analyzed by measuring the O.D. 260/280 nm ratio and Agarose gel electrophoresis. The real time reverse transcription and polymerase chain reaction were carried out by using the Quantitect Reverse Transcription Kit and QuantiTect SYBR Green PCR (QIAGEN) in a Rotor Gene 6000 equipment.

KiT225 cell line = experiment: IL-15-induced proliferation assay of the Kit225 cell line (MTT); assay type: cell-based, human; conditions: IL-15 300 pg/mL, serial dilutions of peptide; FIG. 3
Experimental: To evaluate the neutralizing capacity of the peptides of the present invention, serial dilutions of these peptides were carried out in 96-well plates (Costar, USA) in a 25 μL volume of RPMI medium (Gibco) supplemented at 10% with calf fetal serum (Gibco). Previously washed CTLL-2 or KiT225 cells were added at 5×10^3 cells/well and incubated for 30 min, and a saturating amount of 300 pg/mL IL-15 was added per well.
The antagonistic activity of the peptides was also evaluated, by varying the concentration of IL-15 at a fix concentration of 260 μM of each peptide. Incubation was carried out for 72 h at 37° C. and 5% CO2. Proliferation was assessed by using the MTT mitochondrial staining method (Cosman et al., Nature 1984, 312: 768-771). MTT is reduced to red formazan by the mitochondrial dehydrogenase of live cells. The IC50 was determined to each peptide at a IL-15 concentration of 300 pg/mL.

IL-15Rα subunit = IL-15Rα subunit (Homo sapiens, UniProt Q13261); conditions: IL-15 binding to IL-15Rα; cited from earlier work
[4] = tested on: CTLL-2 cell line and peripheral blood mononuclear cells (PBMC); conditions: CTLL-2 cell line and PBMC; cited from earlier work

human IL-15Rα, sequence (Q13261 31-205 limits assumed): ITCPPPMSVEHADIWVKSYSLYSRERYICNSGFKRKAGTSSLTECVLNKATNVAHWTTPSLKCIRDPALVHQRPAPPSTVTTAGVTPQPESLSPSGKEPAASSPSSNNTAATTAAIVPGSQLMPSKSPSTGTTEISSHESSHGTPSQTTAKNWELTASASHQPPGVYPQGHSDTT
IL-15Rα subunit, sequence (Q13261 31-267): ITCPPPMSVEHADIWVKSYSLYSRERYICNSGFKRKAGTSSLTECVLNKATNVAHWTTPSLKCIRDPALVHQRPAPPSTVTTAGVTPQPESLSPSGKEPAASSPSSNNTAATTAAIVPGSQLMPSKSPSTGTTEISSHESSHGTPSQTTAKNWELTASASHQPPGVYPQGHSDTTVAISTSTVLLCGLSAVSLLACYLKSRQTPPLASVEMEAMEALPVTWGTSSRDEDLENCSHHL

Molecule: KVTAMTCFLL-NH2 [KVTAMTCFLL]
- capacity to bind to the IL-15Rα (human IL-15Rα): retains the capacity to bind to the IL-15Rα
- grade of parakeratosis in the psoriatic lesion [1]: lowered grade
- keratinocytes' cycles [1]: significantly decreased
- number of inflammatory cells [1]: significantly decreased
- thickness of the epidermis [1]: significant reduction
- severity of the disease [1]: reduction in the severity of the disease
- IC50 (CTLL-2 cell line): 24.6 µM
- activity relative to the original peptide of WO2006/029578 (fold) (CTLL-2 cell line; listed as Lys-Thr mutant): five-fold
- antagonistic activity at varying IL-15 concentration (CTLL-2 cell line; fixed peptide concentration 260 μM, IL-15 75, 150, 300 pg/mL, FIG. 4): dependence of the antagonistic activity
- TNFα secretion [2]: inhibits TNFα secretion
- IL15-Rα-mediated transcription of IL-8 ([3]; FIG. 5A): inhibits transcription
- IL15-Rα-mediated transcription of IL-6 ([3]; FIG. 5B): inhibits transcription
- inhibitory effect on IL-15-induced proliferation of Kit225 (KiT225 cell line): inhibitory effect depending on the concentration of the peptide

Molecule: KVAAMKCFLL-NH2 [KVAAMKCFLL]
- IC50 (CTLL-2 cell line): 130 µM

Molecule: IL-15: 14-15 kDa cytokine, T cell activating factor
- Kd (IL-15Rα subunit): 0.01 nM

Molecule: KVTAMKAFLL
- displacement of binding of IL-15 to IL-15Rα (human IL-15Rα; ELISA, IL-15 coated plate, IL-15Rα-Fc, FIG. 2): does not displace
- inhibitory effect of the peptide (in words) (CTLL-2 cell line): loss of the inhibitory effect

Molecule: KATAMKCFLL-NH2 [KATAMKCFLL]
- IC50 (CTLL-2 cell line): 130 µM

Molecule: KVTAMKCFLA-NH2 [KVTAMKCFLA]
- IC50 (CTLL-2 cell line): 260 µM

Molecule: KVTAMECFLL
- activity relative to the original peptide of WO2006/029578 (fold) (CTLL-2 cell line): ten-fold
- inhibitory effect of the peptide (in words) (CTLL-2 cell line): loss of the inhibitory effect

Molecule: KVTAMTCYLL-NH2 [KVTAMTCYLL]
- IC50 (CTLL-2 cell line): 57.7 µM

Molecule: KVTAAKCFLL-NH2 [KVTAAKCFLL]
- IC50 (CTLL-2 cell line): 130 µM

Molecule: KVTAMKSFLL
- inhibitory effect of the peptide (in words) (CTLL-2 cell line): loss of the inhibitory effect

Molecule: KVTAMKCFAL-NH2 [KVTAMKCFAL]
- IC50 (CTLL-2 cell line): 200 µM

Molecule: CSCC[C@H](NC(=O)[C@H](C)NC(=O)[C@@H](NC(=O)[C@@H](NC(=O)[C@@H](N)CCCCN)C(C)C)[C@@H](C)O)C(=O)N[C@H](C(=O)N[C@@H](CSSC[C@H](NC(=O)[C@@H](NC(=O)[C@H](CCSC)NC(=O)[C@H](C)NC(=O)[C@@H](NC(=O)[C@@H](NC(=O)[C@@H](N)CCCCN)C(C)C)[C@@H](C)O)[C@@H](C)O)C(=O)N[C@@H](Cc1ccccc1)C(=O)N[C@@H](CC(C)C)C(=O)N[C@@H](CC(C)C)C(N)=O)C(=O)N[C@@H](Cc1ccccc1)C(=O)N[C@@H](CC(C)C)C(=O)N[C@@H](CC(C)C)C(N)=O)[C@@H](C)O [SEQ ID No. 12 dimer] (I: H-KVTAMTCFLL-NH2 / II: H-KVTAMTCFLL-NH2; disulfide I:7-II:7 (inferred); N-terminus assumed)
- grade of parakeratosis in the psoriatic lesion [1]: lowered grade
- keratinocytes' cycles [1]: significantly decreased
- number of inflammatory cells [1]: significantly decreased
- thickness of the epidermis [1]: significant reduction
- severity of the disease [1]: reduction in the severity of the disease
- IC50 (CTLL-2 cell line): 8 µM
- activity relative to the original peptide of WO2006/029578 (fold) (CTLL-2 cell line): 15
- activity of the dimer relative to the monomer (fold) (CTLL-2 cell line; dimer linked through the free Cys): seven times more active
- inhibitory effect on IL-15-induced proliferation of Kit225 (KiT225 cell line): higher inhibitory effect

Molecule: KVTAMKCFLL-NH2 [KVTAMKCFLL, reference compound]
- IC50 (CTLL-2 cell line): 130 µM

B1: 146B7: Genmab antibody specific for IL-15, targets the region interacting with IL-15Rγ (antibody, chains of the INN, looked up, V domains shown)
VH: EVQLVQSGAEVKKPGESLKISCKVSGYFFTTYWIGWVRQMPGKGLEYMGIIYPGDSDTRYSPSFQGQVTISADKSISTAYLQWSSLKASDTAMYYCARGGNWNCFDYWGQGTLVTVSS
VL: EIVLTQSPGTLSLSPGERATLSCRASQSVSSSYLAWYQQKPGQAPRLLIYGASRRATGIPDRFSGSGSGTDFTLTISRLEPEDFAVYYCQRYGSSHTFGQGTKLEIS
- inhibition of IL-15-induced cell proliferation [4]: inhibit the IL-15-induced cell proliferation

From patent US8431524B2, “Peptide antagonist of interleukin-15 activity” (Centro de Ingenieria Genetica y Biotecnologia, priority 2008, dated 2013)
